Laboratory results from patent publication US9474730B2, “Methods and compositions for use with K-ras mediated disorders” (Board of Regents of the University of Texas System, priority 2012, dated 2016).
Where a name gives a salt, the structure may show the parent alone.

Columns and labels:
[1] = test system: BHK cells expressing constitutively active H-ras with endogenous K-ras knocked down; assay: K-ras knockdown (siRNA) in H-rasG12V cells, pERK Western blotting; type: cell-based, hamster; settings: then 6 μg/mL for 48 h
Procedure: FIG. 7: Illustrates that H-rasG12V signals through endogenous K-ras: BHK cells stably expressing H-rasG12V were treated with vehicle or fendiline HCl (6 μg/mL) for 48 h. (A) ppMEK and ppERK in soluble protein fraction and pAkt levels in membrane protein fraction were measured by quantitative Western blotting. A representative blots are shown. (B) BHK cells stably expressing H-rasG12V were transfected with K-ras siRNA encoding plasmid. 24 h after transfection, cells were treated with vehicle or fendiline HCl (6 μg/mL) for a further 48 h. Whole cell lysates were prepared from serum starved cells and analyzed by quantitative Western blotting. Representative Western blots are shown. Data is shown as mean±SEM from 6 independent experiments. […] (*=p<0.05), and experimentation was performed in accordance with principles described herein;
BHK cells expressing GFP-tagged H-rasG12V were transfected with the ON-Target K-ras specific siRNA pool or non-targeting control siRNA pool (Dharmacon, Inc., Lafayette, Colo., USA) according to manufacturer's protocol. At 24 h post-transfection, the cells were treated with vehicle or Fendiline HCl; 48 h later (72 h total knockdown time) the cells were lysed for Western blot analysis. […]
Quantification of intensities was performed using FluorChemQ software.

[2] = molecular target: T1, GFP-CTK (mGFP-tagged C-terminal region of K-ras) in MDCK cells (Homo sapiens, UniProt P01116); assay: High throughput cell-based screen: plasma membrane localization of GFP-CTK; parameters: species or system canine; settings: fendiline HCl 4 ug/ml, 48 h, MDCK
T1 construct: hypervariable region of K-ras (amino acids 166-188) cloned onto the carboxy terminus of GFP; expressed in transfected cells
T1 sequence (P01116 166-188 isoform P01116-2 limits assumed): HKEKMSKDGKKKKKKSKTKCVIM
Procedure: FIG. 1: Illustrates results of a high throughput cell-based screening of chemical libraries: Madin-Darby Canine Kidney epithelial cells (MDCK) expressing monomeric green fluorescent protein (mGFP)-tagged C-terminal region of K- or H-ras (GFP-CTK and GFP-CTH) were seeded in 96 well plates and treated with drug libraries for 48 h. Cells were then fixed with paraformaldehyde and imaged by BD Pathway Imager in confocal mode; shown are representative images of cells treated with vehicle, […], and 10 μM FTI-276; wherein experimentation was performed in accordance with principles described herein;
In accordance with some embodiments described herein, wild type MDCK cells or MDCK cells expressing monomeric green fluorescent protein (mGFP)-tagged C-terminal region of K-ras or H-ras (GFP-CTK and GFP-CTH respectively) were seeded in triplicate in 96 well plates (Matrical) at a density of 30,000 cells/well and incubated for 24 h at 37° C. Compounds were individually added to test cells at a concentration of 4 μg/mL (concentration of DMSO 1%) and incubated for a further 48 h.
Cells were then fixed with 4% paraformaldehyde and stored in PBS at 4° C. until imaged. Plates were imaged using a BD Pathway High-Throughput Bioimager. Images were acquired by a 3×3 montage with 20× objective lens using GFP-confocal mode. […]

SMILES: CC(NCCC(c1ccccc1)c1ccccc1)c1ccccc1 (centres unmarked) [fendiline HCl]
- pERK levels after K-ras knockdown [1]: did not further reduce pERK levels
- localization of GFP-CTK [2]: specifically affected localization of GFP-CTK
